The source of these data is patent publication US8993593B2, “N-(4-(6-fluoro-3,4-dihydroisoquinolin-2(1H)-yl)-2,6-dimethylphenyl)-3,3-dimethylbutanamide as potassium channel modulators” (Valeant Pharmaceuticals International, priority 2006, dated 2015).

The test system of experiment [1] is mouse maximal electroshock seizure (MES) model. Put plainly: Maximal electroshock seizure (MES) test, mouse. It is filed as in vivo. As to conditions: MES, mouse; read-out: Mouse ED50. An excerpt: (§1) The MES testing protocol is based on procedures established at the National Institute of Neurological Disorders and Stroke in conjunction with the Anticonvulsant Screening Program (ASP) at the University of Utah (White, H. S., Woodhead, J. H., Wilcox, K. S., Stables, J. P., Kupferberg, H. J and Wolf, H. H. 2002. “General Principles: Discovery and Preclinical Development of Antiepileptic Drugs,” in Antiepileptic Drugs, 5th Edition, R. H. Levy, ed.; R. H. Mattson, B. S. Meldrum, and E. Perucca. Philadelphia, Lippincott Williams & Wilkins.), The goal of the test rapid identification and characterization of the in vivo anticonvulsant activity of any compounds that have been shown active in PC-12 cellular based Rb^+ efflux assay.
(§2) Adult male CF-I albino mice (18-25 g, Charles River Laboratories) are exclusively used for in-house MES screen of compounds. Male Sprague-Dawley albino rats (100-125 g, Charles River Laboratories) are also used to test anticonvulsant compounds. Variability of test outcomes is reduced by using animals of the same sex, age, and weight. Animals are permitted to rest and recover from transit for at least 48 hr prior to experimentation. Animals are used for AED testing only once. In some instances, the animals may be anesthetized prior to blood collection and/or whole brain extraction for pharmacokinetic assay. All animals are maintained and handled as outlined in standard animal care guidelines.
(§3) In the experiments, testing compounds are prepared as suspensions in 0.5% methyl cellulose (Sigma, Cat #M0512, Viscosity 4000 cP at 20° C.) in water, regardless of solubility. Dry powder compounds are initially ground with a glass rod in a test tube in several drops of methyl cellulose to create a paste and to break down any large chunks. After several minutes of grinding, the volume of the suspension is increased to the final concentration desired. The suspension is then sonicated using a Branson sonicator model 3510 in a water bath at room temperature for 15 minutes. Compound suspensions are further vortexed prior to animal dosing. In some of the cases, DMSO is used to initially solubilize compounds in small volumes and then this solution is added to the 0.5% methyl cellulose solution, in order to create more even and less aggregated compound suspensions. The final concentration of DMSO is 3.75%, an amount with no apparent toxicity or neuroprotective effects in our usual rotarod and MES tests. Methyl cellulose/DMSO compound suspensions are identically prepared for intraperitoneally (i.p.) to mice or orally (p.o.) to rat dosing.
Initially the animals are weighed with an electronic scale and then marked. Data recording sheets are generated for each compound assessment. Mice or rats are dosed with the compound suspension at 0.01 mL/g of body weight. The typical injection volume range is between 180-250 μl for mice. […] Rats are p.o. dosed using a flexible feeding tube, typically starting at a compound dose of 5 mg/kg.
A Rodent Electroconvulsive Stimulator (Model 200, Hamit-Darvin-Freesh, Snow Canyon Clinic, Ivins, Utah) is used for MES testing. A 60-Hz alternating current (50 mA for mice; 150 mA for rats) is delivered for 0.2 seconds through corneal electrodes to the mice. A drop of 0.5% tetracaine (Sigma, Cat. #T-7508) solution is placed on the eye prior to current delivery. The electrodes are subsequently placed gently onto the eyes of the animal and the electrical shock is initiated by triggering through a foot-pedal activator. The animals are restrained by hand and gently released as the shock is delivered and the seizure commences. Animals are monitored for hind limb tonic extension as the end point for this test. Current delivery is recorded as a measure of overall seizure-induction potential. Electrical current delivery can vary from approximately 30-55 mA (mice) or 90-160 mA (rats) depending on impedance in the animal and quality of the current delivery (ie. correct placement of the electrodes on the cornea). […]

In experiment [2] the test system is rat MES model of epilepsy. The experiment can be described thus: Maximal electroshock seizure (MES) test, rat. It is filed as in vivo. As to conditions: MES, rat; read-out: Rat ED50.
From the text: as §1, §2, §3
Initially the animals are weighed with an electronic scale and then marked. Data recording sheets are generated for each compound assessment. Mice or rats are dosed with the compound suspension at 0.01 mL/g of body weight. The typical injection volume range is between 180-250 μl for mice. Compounds are dosed by i.p. to mice using a 25 or 22 gauge needle, depending on the viscosity of the suspension. Rats are p.o. dosed using a flexible feeding tube, typically starting at a compound dose of 5 mg/kg.
A Rodent Electroconvulsive Stimulator (Model 200, Hamit-Darvin-Freesh, Snow Canyon Clinic, Ivins, Utah) is used for MES testing. A 60-Hz alternating current (50 mA for mice; 150 mA for rats) is delivered for 0.2 seconds through corneal electrodes to the mice. […] Animals are monitored for hind limb tonic extension as the end point for this test. Current delivery is recorded as a measure of overall seizure-induction potential. […]

Experiment [3] has as its target KCNQ1 (Homo sapiens, UniProt P51787). Put plainly: Two-electrode voltage-clamp in Xenopus laevis oocytes, KCNQ1. Format: cell-based. Also noted: KCNQ1 Block (%): dose or concentration left out as unconfirmed. As to conditions: oocyte expression. On the procedure: (§4) Female Xenopus laevis extracted ovaries were purchased from eNASCO (LM00935MX, eNASCO Fort Atkinson, Wis.). […] Approximately 50 nl cRNA (about 50 ng) was injected for KCNQ1, KCNQ4, and KCNQ5 using a Nanoject microinjector (Drummond, Broomall, Pa., USA). For co-expression of KCNQ2 and KCNQ3 and of KCNQ1 and KCNE1, cRNA's were mixed in equal molar ratios before injection of approximately 50 nl. […] Oocytes were kept in Culture Barth solution at 19° C. which was changed daily and currents were recorded after 3 to 5 days.
(§5) KCNQ channel currents expressed in Xenopus laevis oocytes were recorded using a two-electrode voltage-clamp. […] The oocytes were placed in custom built perfusion chambers connected to a continuous flow system and impaled with a current electrode and a voltage-clamp electrode pulled from borosilicate glass on a Flaming/Brown Micropipette Puller (Sutter Instruments Co, Novato, Calif., USA).
(§6) All compounds were dissolved in DMSO to obtain concentrated stock solutions. On the day of electrophysiological experiments the stock solutions were thawed and diluted in recording solution to their final concentrations. The final DMSO concentration never exceeded 0.1%. Compound delivery was performed using a custom built multi-barrel apparatus connected to the flow system.
(§7) Data were acquired by means of an Axograph X software (Axograph Scientific, Sydney, AU) and analyzed using Graph Pad Prism (GraphPad Software Inc., CA, USA). […]
(§8) After steady channel current was recorded in the presence of Retigabine at its EC75, recorded oocyte was washed with the recording solution until its steady current returned to its normal level without the presence of any drugs. Then the channel steady current was recorded in the presence of the test compound at its EC75. The percent efficacy was then expressed as: % efficacy=(C2/C 1)×100 where C2 is the recorded steady current in the presence of follow-on compound at its EC75 and C1 is the recorded steady current in the presence of Retigabine at its EC75.

For experiment [4], the target named is KCNQ1/NE1 (Homo sapiens, UniProt P51787). The experiment can be described thus: Two-electrode voltage-clamp in Xenopus laevis oocytes, KCNQ1/KCNE1. Format: cell-based. Set-up: dose or concentration left out as unconfirmed. As to conditions: oocyte expression. On the procedure: as §4
Sequence of KCNQ1/NE1 (P51787 whole entry): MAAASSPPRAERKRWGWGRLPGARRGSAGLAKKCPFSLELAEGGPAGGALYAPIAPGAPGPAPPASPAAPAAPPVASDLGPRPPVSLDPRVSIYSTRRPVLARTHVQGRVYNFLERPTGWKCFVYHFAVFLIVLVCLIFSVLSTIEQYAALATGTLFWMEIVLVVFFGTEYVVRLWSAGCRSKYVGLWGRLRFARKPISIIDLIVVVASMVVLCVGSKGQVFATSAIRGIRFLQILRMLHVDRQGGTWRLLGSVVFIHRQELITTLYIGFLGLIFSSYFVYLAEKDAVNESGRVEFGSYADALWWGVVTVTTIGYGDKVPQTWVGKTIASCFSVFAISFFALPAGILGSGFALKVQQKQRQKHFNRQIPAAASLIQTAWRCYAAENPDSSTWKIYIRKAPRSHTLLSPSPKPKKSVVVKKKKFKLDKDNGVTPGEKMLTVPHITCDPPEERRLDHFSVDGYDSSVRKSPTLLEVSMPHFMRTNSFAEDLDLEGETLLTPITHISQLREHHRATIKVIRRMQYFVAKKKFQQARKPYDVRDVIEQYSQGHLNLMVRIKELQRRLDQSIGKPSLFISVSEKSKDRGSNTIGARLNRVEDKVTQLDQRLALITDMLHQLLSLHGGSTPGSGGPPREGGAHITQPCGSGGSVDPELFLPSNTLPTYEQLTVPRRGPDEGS
KCNQ channel currents expressed in Xenopus laevis oocytes were recorded using a two-electrode voltage-clamp. […]
as §7, §8

Experiment [5] deals with KCNQ2/3 (Homo sapiens, UniProt O43525+O43526). Put plainly: Two-electrode voltage-clamp in Xenopus laevis oocytes, KCNQ2/3. As to conditions: oocyte expression, at EC75. It is filed as cell-based. The procedure: as §4, §5, §6, §7, §8
Experiment [6] addresses KCNQ4 (Homo sapiens, UniProt P56696). The experiment can be described thus: Two-electrode voltage-clamp in Xenopus laevis oocytes, KCNQ4. Format: cell-based. As to conditions: oocyte expression, at EC75. The procedure: as §4, §5, §6, §7, §8
Experiment [7] concerns the target KCNQ5 (Homo sapiens, UniProt Q9NR82). The experiment can be described thus: Two-electrode voltage-clamp in Xenopus laevis oocytes, KCNQ5. It is filed as cell-based. As to conditions: oocyte expression, at EC75. The procedure:
as §4, §5, §6, §7, §8

Experiment [8] deals with T1, KCNQ2 channels (Homo sapiens, UniProt O43526).
T1 construct: expressed in transfected cells; host or cells: CHO cells
T1 sequence (O43526 whole entry): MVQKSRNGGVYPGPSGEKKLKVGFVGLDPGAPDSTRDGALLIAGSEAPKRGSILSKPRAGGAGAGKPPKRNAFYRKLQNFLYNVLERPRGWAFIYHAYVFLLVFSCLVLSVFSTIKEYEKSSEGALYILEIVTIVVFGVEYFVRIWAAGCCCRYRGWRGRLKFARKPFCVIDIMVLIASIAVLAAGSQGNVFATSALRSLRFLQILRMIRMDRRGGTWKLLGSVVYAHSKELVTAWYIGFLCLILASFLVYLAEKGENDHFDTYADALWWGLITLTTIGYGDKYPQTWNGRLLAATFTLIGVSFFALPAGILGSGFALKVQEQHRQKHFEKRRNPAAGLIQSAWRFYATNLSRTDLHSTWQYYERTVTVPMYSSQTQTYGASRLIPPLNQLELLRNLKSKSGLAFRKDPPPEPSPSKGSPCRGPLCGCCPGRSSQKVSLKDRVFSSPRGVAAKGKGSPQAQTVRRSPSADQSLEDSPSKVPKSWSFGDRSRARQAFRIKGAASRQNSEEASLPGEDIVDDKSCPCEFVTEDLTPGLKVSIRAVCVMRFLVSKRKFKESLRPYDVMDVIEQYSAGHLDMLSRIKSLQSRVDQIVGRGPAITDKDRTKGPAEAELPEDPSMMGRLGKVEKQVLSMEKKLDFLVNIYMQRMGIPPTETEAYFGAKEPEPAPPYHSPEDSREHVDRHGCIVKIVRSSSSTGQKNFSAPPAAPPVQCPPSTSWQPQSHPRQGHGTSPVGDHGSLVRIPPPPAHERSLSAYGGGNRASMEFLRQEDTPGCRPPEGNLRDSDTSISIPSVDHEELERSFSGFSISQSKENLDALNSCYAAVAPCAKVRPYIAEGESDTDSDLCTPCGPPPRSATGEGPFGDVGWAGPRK
Put plainly: Potassium ion efflux, KCNQ2 channels expressed in CHO cells. Format: cell-based. On the procedure: Using natively expressed M-currents present in differentiated pheochromocytoma (PC-12) cells and CHO cells transfected with KCNQ2 and hERG potassium channels, the in vitro activity of compound A on potassium ion efflux was determined.
The EC50 values for retigabine and compound A on the activation of KCNQ2 channels expressed in CHO cells were determined on three separate occasions in triplicate.

Take `CC(C)(C)CC(=O)Nc1c(Cl)cc(N2CCc3ccccc3C2)cc1C(F)(F)F`: in experiment [1], the ED50 is over 12 mg/kg.
For the compound `O=C(CCC1CCCC1)Nc1c(Cl)cc(N2CCc3ccccc3C2)cc1C(F)(F)F`, the ED50 in experiment [1] is over 12 mg/kg.
The same measure, in the same setting: for `Cc1cc(N2CCc3ccccc3C2)cc(C)c1NC(=O)CC(C)(C)C` the value was 0.12 to 1.2 mg/kg.
The same measure, in the same setting: for `CC(C)(C)CC(=O)Nc1c(Cl)cc(N2CCc3cc(F)ccc3C2)cc1C(F)(F)F` the value was over 12 mg/kg; for `Cc1cc(N2CCc3ccccc3C2)cc(Cl)c1NC(=O)CC(C)(C)C`, 0.12 to 1.2 mg/kg; for `Cc1cc(N2CCc3ccc(F)cc3C2)cc(C)c1NC(=O)CC(C)(C)C`, 0.12 to 1.2 mg/kg.
Same read-out and setting: the same measure for `Cc1cc(N2CCc3cc(F)ccc3C2)cc(Cl)c1NC(=O)CC(C)(C)C`: over 12 mg/kg; for `Cc1cc(N2CCc3cc(C(F)(F)F)ccc3C2)cc(Cl)c1NC(=O)CC(C)(C)C`: over 12 mg/kg; for `CC(C)(C)CC(=O)Nc1c(Cl)cc(N2CCc3cc(C(F)(F)F)ccc3C2)cc1C(F)(F)F`: over 12 mg/kg.
For the compound `Cc1cc(N2CCc3cc(C(F)(F)F)ccc3C2)cc(C)c1NC(=O)CC(C)(C)C`, the ED50 in experiment [1] and in experiment [2] was 0.12 to 1.2 mg/kg in each case.
With `O=C(CCC1CCCC1)Nc1c(Cl)cc(N2CCc3cc(F)ccc3C2)cc1C(F)(F)F`, in experiment [1], the ED50 is over 12 mg/kg.
Still for that read-out and setting: the same measure for `Cc1cc(N2CCc3cc(Cl)ccc3C2)cc(C)c1NC(=O)CC(C)(C)C`: 0.12 to 1.2 mg/kg; for `CC(C)(C)CC(=O)Nc1c(Cl)cc(N2CCc3cc(Cl)ccc3C2)cc1C(F)(F)F`: over 12 mg/kg.
Still for that read-out and setting: the same measure for `Cc1cc(N2CCc3ccc(F)cc3C2)cc(Cl)c1NC(=O)CC(C)(C)C`: 0.12 to 1.2 mg/kg; for `Cc1cc(N2CCc3cc(Cl)ccc3C2)cc(Cl)c1NC(=O)CC(C)(C)C`: 0.12 to 1.2 mg/kg.
Consider `CC(C)(C)CC(=O)Nc1c(Cl)cc(N2CCc3ccc(F)cc3C2)cc1C(F)(F)F`, for which the ED50 in experiment [1] was over 12 mg/kg.
The same measure, in the same setting: the same measure for `CC(C)(C)CC(=O)Nc1ccc(N2CCc3cc(F)ccc3C2)cc1Cl`: over 12 mg/kg; for `CC(C)(C)CC(=O)Nc1ccc(N2CCc3cc(F)ccc3C2)cc1C(F)(F)F`: 0.12 to 1.2 mg/kg.
For `CC(C)(C)CC(=O)Nc1ccc(N2CCc3cc(C(F)(F)F)ccc3C2)cc1Cl`, the ED50 in experiment [1] is over 12 mg/kg.
On to `Cc1cc(N2CCc3ccc(C(F)(F)F)cc3C2)cc(C)c1NC(=O)CC(C)(C)C`, for which the ED50 in experiment [1] and in experiment [2] was 0.12 to 1.2 mg/kg each time.
For `COc1cc(N2CCc3ccccc3C2)cc(C)c1NC(=O)CC(C)(C)C`, the ED50 in experiment [1] fell in the range of 0.12 to 1.2 mg/kg.
In the case of `CC(C)(C)CC(=O)Nc1c(Cl)cc(N2CCc3ccccc3C2)cc1OC(F)(F)F`, the ED50 in experiment [1] is over 12 mg/kg.
On to `COc1cc(N2CCc3ccccc3C2)cc(OC)c1NC(=O)CC(C)(C)C`, for which the ED50 in experiment [1] and in experiment [2] was 0.12 to 1.2 mg/kg in each case.
Take `CC(C)(C)CC(=O)Nc1ccc(N2CCc3ccc(C(F)(F)F)cc3C2)cc1C(F)(F)F`: the ED50 in experiment [1] fell in the range of 0.12 to 1.2 mg/kg.
On the same count and under the same terms, for `COc1ccc2c(c1)CCN(c1cc(C)c(NC(=O)CC(C)(C)C)c(C)c1)C2` the value was over 12 mg/kg.
On to `Cc1cc(N2CCc3cc(F)ccc3C2)cc(C)c1NC(=O)CC(C)(C)C` [drawing 119], for which the ED50 in experiment [1] and in experiment [2] was 0.12 to 1.2 mg/kg throughout.
Consider `CCOC(=O)Nc1ccc(NCc2ccc(F)cc2)cc1N` [retigabine, N-[2-amino-4-(4-fluorobenzylamino)phenyl]carbamic acid, ethyl ester, reference compound], for which, in experiment [3], the “KCNQ1 Block (%)” value was 12%. For the same compound, the “KCNQ1/NE1 Block (%)” value in experiment [4] turned out to be 4.3%. The “KCNQ2/3 Efficacy Relative to Retigabine (%)” value in experiment [5] was 100%. Further, in experiment [6], the “KCNQ4 Efficacy Relative to Retigabine (%)” value is 100%. In addition, in experiment [7], the “KCNQ5 Efficacy Relative to Retigabine (%)” value is 100%. In addition, the EC50 in experiment [8] was 291 nM.
